Measured values taken from patent publication US20240383908A1, “SYNTHESIS AND APPLICATION OF PHOSPHATASE DEGRADER” (HINOVA PHARMACEUTICALS INC., priority 2021, published 2024).

The compounds below were run against T1, SHP2 protein (Homo sapiens, UniProt Q06124) (assay: Degradation activity on SHP2 protein in MIA Paca-2 cells (Western blot, DC50)). Conditions: read-out: Degradation activity for differenct cell lines MIA Paca-2 (DC50).
T1 sequence (Q06124 1-593): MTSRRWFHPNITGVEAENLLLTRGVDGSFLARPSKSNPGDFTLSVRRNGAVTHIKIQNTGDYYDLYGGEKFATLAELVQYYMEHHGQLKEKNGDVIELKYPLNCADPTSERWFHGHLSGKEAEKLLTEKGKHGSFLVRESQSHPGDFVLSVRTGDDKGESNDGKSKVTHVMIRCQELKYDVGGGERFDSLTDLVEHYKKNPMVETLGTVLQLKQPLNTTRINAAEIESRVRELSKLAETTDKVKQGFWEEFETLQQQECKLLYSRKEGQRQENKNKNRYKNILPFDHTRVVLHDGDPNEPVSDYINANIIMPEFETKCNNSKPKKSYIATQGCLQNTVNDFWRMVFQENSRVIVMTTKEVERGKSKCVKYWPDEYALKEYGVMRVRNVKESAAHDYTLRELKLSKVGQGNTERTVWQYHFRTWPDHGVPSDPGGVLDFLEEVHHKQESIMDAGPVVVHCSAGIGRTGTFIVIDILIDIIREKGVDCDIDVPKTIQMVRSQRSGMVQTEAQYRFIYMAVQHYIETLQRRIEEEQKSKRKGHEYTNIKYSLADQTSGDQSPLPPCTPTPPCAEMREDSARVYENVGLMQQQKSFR
Format: cell-based
Parameters: endogenous in cells; host or cells: MIA Paca-2 cells
Method: (1) MV-411 cells were cultured in the cell culture medium, and then well-growing cells were selected and inoculated in a 12-well plate, with 1 mL/well and 1×10^6 cells/well. The plate was incubated overnight in a 5% CO2 cell incubator at 37° C.
(2) 10 mM storage solution of each drug was prepared using dimethylsulfoxide (DMSO). The stock solution was diluted gradually with DMSO before use, and then 1 μL of the compound solution was added to the cell culture well (to ensure that the DMSO concentration in the culture system was […]), so that the final drug concentration is 100 nM, 10 nM, 3 nM, 1 nM, 0.3 nM, and 0.1 nM. Two wells were set for each concentration. The plate was gently shaken and mixed. Additionally, negative control wells (containing an equal amount of DMSO) and positive control wells were included.
(3) After 24 hours of cultivation, the cells were lysed using RIPA cell lysate, and the proteins were extracted. The protein concentration was measured using a BCA assay kit. 5× concentrated protein buffer was loaded, heated at 100° C. for 5 min, and then the sample was stored at −20° C.
(4) For each well, 30 μg of protein was loaded to polyacrylamide gel for electrophoresis.
(5) The protein was transferred from polyacrylamide gel to PVDF membrane, and sealed at room temperature with 5% skimmed milk for 1 h, which was then incubated with the primary antibodies (Anti-SHP2 rabbit mAb and Anti-GAPDH rabbit mAb) at 4° C. overnight. The membrane was washed three times with TBST solution, 10 minutes for each time. After that, the membrane was incubated with the secondary antibodies (horseradish peroxidase labeled goat anti-rabbit IgG) at room temperature for 2 h, and then washed three times with TBST solution, 10 minutes for each time, followed by exposure.
(6) The images were analyzed with Image J grayscale, and the degradation ratio of protein bands in the test group was calculated, based on the negative control group (DMSO) (100%).
(7) Using the Dose-response-inhibition equation in the data processing software GraphPad Prism 8, the DC50 value was obtained (which represents the drug concentration corresponding to 50% degradation of the target protein).
Using similar methods and different cell lines, the degradation activity of the compound according to the present invention on SHP2 protein of different cell lines was tested under suitable culture conditions.

SMILES | DC50
CC1(N)CCN(c2cnc(Sc3cccc(NC(=O)CCN4CC=C(c5ccc(C(=O)NCc6ccc7c(c6)CN(C6CCC(=O)NC6=O)C7=O)nc5)C(C)(C)C4)c3)cn2)CC1 (stereo not shown) [Compound 274] | > 1000 nM
C[C@@H]1OCC2(CCN(c3cnc(Sc4cccc(NC(=O)C5CC56CCN(c5ccc(CN7CCN(c8ccc9c(c8)CN(C8CCC(=O)NC8=O)C9=O)CC7)cc5F)CC6)c4)cn3)CC2)[C@@H]1N (stereo partly shown) [Compound 273] | > 1000 nM
CC1(N)CCN(c2cnc(Sc3cccc(NC(=O)C4CCC(N5CCC(N6CC=C(c7ccc(C(=O)NCc8ccc9c(c8)CN(C8CCC(=O)NC8=O)C9=O)nn7)CC6)CC5)CC4)c3)cn2)CC1 (stereo not shown) [Compound 339] | < 100 nM
NC1CCN(c2cnc(Sc3cccc(NC(=O)c4ccc(N5CCC(N6CC=C(c7ccc(C(=O)NCc8ccc9c(c8)CN(C8CCC(=O)NC8=O)C9=O)nn7)CC6)CC5)cc4)c3)cn2)CC1F (stereo not shown) [Compound 376] | > 1000 nM
CC1(N)CCN(c2cnc(Sc3cccc(NC(=O)c4ncc(N5CCC(N6CCN(c7ccc(C(=O)NCc8ccc9c(c8)CN(C8CCC(=O)NC8=O)C9=O)nn7)CC6)CC5)cn4)c3)cn2)CC1 (stereo not shown) [Compound 449] | < 100 nM
CC1(N)CCN(c2cnc(Sc3cccc(NC(=O)C4CC45CCC(N4CC=C(c6ccc(C(=O)Nc7ccc8c(c7)CN(C7CCC(=O)NC7=O)C8=O)nn6)CC4)CC5)c3)cn2)CC1 (single isomer, unassigned) [Compound 321] | < 100 nM
Cc1cc(C(=O)Nc2cccc(Sc3cnc(N4CCC(C)(N)CC4)cn3)c2)ccc1N1CCC(N2CC=C(c3ccc(C(=O)NCc4ccc5c(c4)CN(C4CCC(=O)NC4=O)C5=O)cc3)CC2)CC1 (stereo not shown) [Compound 453] | 100 to 1000 nM
C[C@@H]1OCC2(CCN(c3cnc(Sc4cccc(NC(=O)CCN5CCN(c6ccc(C(=O)NCc7ccc8c(c7)CN(C7CCC(=O)NC7=O)C8=O)nn6)CC5)c4)cn3)CC2)[C@@H]1N (stereo partly shown) [Compound 289] | > 1000 nM
CC1(N)CCN(c2cnc(Sc3cccc(NC(=O)c4cc(F)c(N5CCC(N6CC=C(c7ccc(C(=O)NCc8ccc9c(c8)CN(C8CCC(=O)NC8=O)C9=O)nc7)CC6)CC5)c(F)c4)c3)cn2)CC1 (stereo not shown) [Compound 471] | 100 to 1000 nM
CC1(N)CCN(c2cnc(Sc3cccc(NC(=O)c4ccc(N5CCC(N6CC=C(c7ccc(C(=O)NCc8ccc9c(c8)CN(C8CCC(=O)NC8=O)C9=O)nc7)CC6)CC5)cc4)c3)cn2)CC1 (stereo not shown) [Compound 312] | < 100 nM
CC1(N)CCN(c2cnc(Sc3cccc(NC(=O)c4ccc(C5=CCC(N6CC=C(c7ccc(C(=O)NCc8ccc9c(c8)CN(C8CCC(=O)NC8=O)C9=O)nn7)CC6)CC5)cc4)c3)cn2)CC1 (stereo not shown) [Compound 368] | < 100 nM
COCC1(N)CCN(c2cnc(Sc3cccc(NC(=O)c4ccc(N5CCC(N6CC=C(c7ccc(C(=O)NCc8ccc9c(c8)CN(C8CCC(=O)NC8=O)C9=O)nn7)CC6)CC5)cc4)c3)cn2)CC1 (stereo not shown) [Compound 433] | > 1000 nM
CC1(N)CCN(c2cnc(Sc3cccc(NCc4ccc(N5CCC(N6CCN(c7ccc8c(c7)C(=O)N(C7CCC(=O)NC7=O)C8)CC6)CC5)c(F)c4)c3)cn2)CC1 (stereo not shown) [Compound 291] | > 1000 nM
COC(=O)NC1(C)CCN(c2cnc(Sc3cccc(NC(=O)c4ccc(N5CCC(N6CC=C(c7ccc(C(=O)NCc8ccc9c(c8)CN(C8CCC(=O)NC8=O)C9=O)nc7)CC6)CC5)c(F)c4)c3)cn2)CC1 (stereo not shown) [Compound 424] | > 1000 nM
CC1(N)CCN(c2cnc(Sc3cccc(NC(=O)c4ccc(N5CCC(N6CCN(c7ccc(C(=O)NCc8ccc9c(c8)CN(C8CCC(=O)NC8=O)C9=O)nc7)CC6)CC5)nc4)c3)cn2)CC1 (stereo not shown) [Compound 436] | 100 to 1000 nM
CC1(N)CCN(c2cnc(Sc3cccc(NC(=O)C4CC45CCC(N4CC=C(c6ccc(C(=O)N7CCN(c8ccc9c(c8)CN(C8CCC(=O)NC8=O)C9=O)CC7)nc6)CC4)CC5)c3)cn2)CC1 (single isomer, unassigned) [Compound 322] | > 1000 nM

SMILES | DC50
CC1(N)CCN(c2cnc(Sc3cccc(NC(=O)CCCCCOc4ccc(-c5ccc(C(=O)NCc6ccc7c(c6)CN(C6CCC(=O)NC6=O)C7=O)nc5)cc4)c3)cn2)CC1 (stereo not shown) [Compound 213] | > 1000 nM
C[C@@H]1OCC2(CCN(c3cnc(Sc4cccc(NC(=O)c5ccc(N6CCC(N7CCC(c8ccc(C(=O)NCc9ccc%10c(c9)CN(C9CCC(=O)NC9=O)C%10=O)cc8)C(F)C7)CC6)c(F)c5)c4)cn3)CC2)[C@@H]1N (stereo partly shown) [Compound 510] | < 100 nM
CC1(N)CCN(c2cnc(Sc3cccc(NC(=O)c4ccc(N5CCC(N6CCN(c7ccc(C(=O)NCc8ccc9c(c8)CN(C8CCC(=O)NC8=O)C9=O)nc7)CC6)CC5)nn4)c3)cn2)CC1 (stereo not shown) [Compound 450] | < 100 nM
C[C@@H]1OCC2(CCN(c3cnc(Sc4cccc(NC(=O)C5CC6(C5)CC(N5CC=C(c7ccc(C(=O)NCc8ccc9c(c8)CN(C8CCC(=O)NC8=O)C9=O)nc7)CC5)C6)c4)cn3)CC2)[C@@H]1N (stereo partly shown) [Compound 473] | < 100 nM
COc1nc(C2=CCN(C3CCN(c4ccc(C(=O)Nc5cccc(Sc6cnc(N7CCC(C)(N)CC7)cn6)c5)cc4)CC3)CC2)ccc1C(=O)NCc1ccc2c(c1)CN(C1CCC(=O)NC1=O)C2=O (stereo not shown) [Compound 338] | < 100 nM
NC1CCN(c2cnc(Sc3cccc(NC(=O)c4ccc(N5CCC(N6CC=C(c7ccc(C(=O)NCc8ccc9c(c8)CN(C8CCC(=O)NC8=O)C9=O)nc7)CC6)CC5)cc4)c3)cn2)CC1F (stereo not shown) [Compound 337] | < 100 nM
C[C@@H]1OCC2(CCN(c3cnc(Sc4cccc(NC(=O)c5ccc(N6CCC(N7CC=C(c8cnc(C(=O)NCc9ccc%10c(c9)CN(C9CCC(=O)NC9=O)C%10=O)cc8Cl)CC7)CC6)c(F)c5)c4)cn3)CC2)[C@@H]1N (stereo partly shown) [Compound 460] | < 100 nM
CC1(N)CCN(c2cnc(Sc3cccc(NC(=O)c4ccc(N5CCC(N6CC=C(c7ccc(C(=O)Nc8ccc9c(c8)CN(C8CCC(=O)NC8=O)C9=O)nc7)CC6)CC5)cc4)c3)cn2)CC1 (stereo not shown) [Compound 313] | < 100 nM
CC1(N)CCN(c2cnc(Sc3cccc(NC(=O)C4CC(N5CCN(c6ccc7c(c6)C(=O)N(C6CCC(=O)NC6=O)C7=O)CC5)C4)c3)cn2)CC1 (stereo not shown) [Compound 268] | > 1000 nM
Cc1cc(C(=O)NCc2ccc3c(c2)CN(C2CCC(=O)NC2=O)C3=O)ncc1C1=CCN(C2CCN(c3ccc(C(=O)Nc4cccc(Sc5cnc(N6CCC(C)(N)CC6)cn5)c4)cc3)CC2)CC1 (stereo not shown) [Compound 480] | < 100 nM
CC1(N)CCN(c2cnc(Sc3cccc(NC(=O)c4ccc(C5=CCC(N6CC=C(c7ccc(C(=O)NCc8ccc9c(c8)CN(C8CCC(=O)NC8=O)C9=O)nc7)CC6)CC5)nc4)c3)cn2)CC1 (stereo not shown) [Compound 432] | > 1000 nM
CC1(N)CCN(c2cnc(Sc3cccc(NC(=O)C4CC45CCC(N4CC=C(c6ccc(C(=O)Nc7ccc8c(c7)CN(C7CCC(=O)NC7=O)C8=O)nn6)CC4)CC5)c3)cn2)CC1 (single isomer, unassigned) [Compound 320] | > 1000 nM
CC1(N)CCN(c2cnc(Sc3cccc(NC(=O)c4cnc(N5CCC(N6CC=C(c7ccc(C(=O)NCc8ccc9c(c8)CN(C8CCC(=O)NC8=O)C9=O)nc7)CC6)CC5)cn4)c3)cn2)CC1 (stereo not shown) [Compound 430] | 100 to 1000 nM
CC1(N)CCN(c2cnc(Sc3cccc(NC(=O)c4ccc(C5=CCC(N6CC=C(c7ccc(C(=O)NCc8ccc9c(c8)CN(C8CCC(=O)NC8=O)C9=O)nc7)CC6)CC5)cc4)c3)cn2)CC1 (stereo not shown) [Compound 307] | < 100 nM
CC1(N)CCN(c2cnc(Sc3cccc(NC(=O)C4CC(N5CCC(N6CC=C(c7ccc(C(=O)NCc8ccc9c(c8)CN(C8CCC(=O)NC8=O)C9=O)nn7)CC6)CC5)C4)c3)cn2)CC1 (stereo not shown) [Compound 296] | < 100 nM
